From PubChem BioAssay (NCI)
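Test compounds were applied to cells in 96-well plates for 48 hours at 5 doses. GI50: concentration for 50% inhibition of growth. The concentration for full growth arrest is given as TGI.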

Assays:
Assay in all cases: NCI anticancer screen, dose series, 48 h
NCI-H522 lung = tested on: NCI-H522 lung
HCT-116 colon = tested on: HCT-116 colon
NCI-H460 lung = tested on: NCI-H460 lung
OVCAR-4 ovarian = tested on: OVCAR-4 ovarian
HCC-2998 colon = tested on: HCC-2998 colon
MDA-MB-435 = tested on: MDA-MB-435
CAKI-1 renal = tested on: CAKI-1 renal
ACHN renal = tested on: ACHN renal
MOLT-4 leukemia = tested on: MOLT-4 leukemia
M14 melanoma = tested on: M14 melanoma

SMILES | GI50 (NCI-H522 lung) | TGI (NCI-H522 lung) | GI50 (HCT-116 colon) | TGI (HCT-116 colon) | GI50 (NCI-H460 lung) | TGI (NCI-H460 lung) | GI50 (OVCAR-4 ovarian) | TGI (OVCAR-4 ovarian) | GI50 (HCC-2998 colon) | TGI (HCC-2998 colon) | GI50 (MDA-MB-435) | TGI (MDA-MB-435) | GI50 (CAKI-1 renal) | TGI (CAKI-1 renal) | GI50 (ACHN renal) | TGI (ACHN renal) | GI50 (MOLT-4 leukemia) | TGI (MOLT-4 leukemia) | GI50 (M14 melanoma) | TGI (M14 melanoma)
C=C1C(=O)O[C@H]2[C@H]1CC/C(COC(=O)CCSCCC(=O)OC/C1=C/CC[C@@]3(C)O[C@H]3[C@H]3OC(=O)C(=C)[C@@H]3CC1)=C\CC[C@@]1(C)O[C@@H]21 | 0.686 µM | 2.29 µM | 0.206 µM | 0.609 µM | 1.86 µM | 4.21 µM | 1.66 µM | 3.71 µM | 1.89 µM | 3.52 µM | 1.63 µM | 4.19 µM | 1.62 µM | 3.12 µM | 0.658 µM | 1.89 µM | 0.422 µM | 2.12 µM | 1.52 µM | 3.35 µM
COc1cccc(-c2nn(-c3ccccc3)cc2-c2ccnc(NCCNC(=O)Nc3cccc(C(F)(F)F)c3)c2)c1 | 1.24 µM | 3.19 µM | 2.88 µM | 11.8 µM | 2 µM | 3.85 µM | 2.36 µM | 8.13 µM | 1.72 µM | 3.26 µM | 1.75 µM | 3.38 µM | 1.95 µM | 5.62 µM | 2.91 µM | 10.4 µM | 2.02 µM | 4.81 µM | 2.79 µM | 10.6 µM
COc1cccc(-c2ccc3c(c2)C2CCN(Cc4ccccc4)C3C2)c1 (stereo not given) | 4.54 µM | 20.4 µM | 4.8 µM | 23.6 µM | 4.13 µM | 15.7 µM | 5.71 µM | 58.2 µM | 13.6 µM | 33.5 µM | 2.43 µM | 7.29 µM | 10.8 µM | 40.1 µM | 11.9 µM | 38.1 µM | 7.17 µM | 40.5 µM | 5.78 µM | 24.8 µM
CN(Cc1cccc(F)c1)c1ccc(CO)c(Cl)c1 | 24.1 µM | 75.5 µM | 0.392 µM | 13.7 µM | 1.28 µM | 13.5 µM | 1.61 µM | 17 µM | 13.2 µM | 42.5 µM | 15.7 µM | 57.6 µM | 3.05 µM | > 61.3 µM | 37.3 µM | > 100 µM | 29 µM | > 83.5 µM | 20.4 µM | 83 µM
Oc1ccc(-c2nc3ccc4[nH]ncc4c3c3c2CCCC3)c(F)c1 | 1.25 µM | 4.72 µM | 0.739 µM | 11 µM | 2.18 µM | 11.1 µM | 3.38 µM | 16.1 µM | 4.25 µM | 14.5 µM | 1.75 µM | 10.9 µM | 2.69 µM | 9.73 µM | 2.08 µM | 12.5 µM | 1.91 µM | 8.88 µM | 1.07 µM | 12 µM
CCN1C(=O)CCCc2c1ccc(Nc1ncc(Cl)c(NC3[C@@H](C(N)=O)[C@@H]4C=C[C@H]3C4)n1)c2OC (stereo not given in full) | 1.16 µM | 6.13 µM | 0.805 µM | 7.43 µM | 0.661 µM | 13.4 µM | 1.94 µM | > 41.3 µM | 1.69 µM | 3.57 µM | 0.917 µM | 9.85 µM | 0.919 µM | 4.48 µM | 2.07 µM | > 30.2 µM | 1.41 µM | 11.3 µM | 0.77 µM | 2.32 µM
COc1cccc(/C=N/NC(=S)NC2CC3CCC2C3)c1O (stereo not given) | 11.5 µM | 37.6 µM | 4.01 µM | 15.8 µM | 2.47 µM | 8.43 µM | 1.82 µM | 4.46 µM | 80.4 µM | > 100 µM | 16.1 µM | 78.9 µM | 3.33 µM | 15.9 µM | 2.5 µM | 8.14 µM | 10.5 µM | 48.3 µM | 9.92 µM | 31.9 µM
Cc1ccc(C(NC(=O)c2ccccc2)c2ccc3cccnc3c2O)cc1 (stereo not given) | 0.31 µM | 2.74 µM | 0.303 µM | 13.8 µM | 0.26 µM | 3.08 µM | 0.275 µM | > 52 µM | 0.331 µM | 18.5 µM | 0.491 µM | 23.4 µM | 0.328 µM | > 50.7 µM | 0.285 µM | 15.4 µM | 0.332 µM | > 70.2 µM | 0.244 µM | 2.38 µM
CCCCCCNC(=O)Oc1ccc(/C(=C(/C)Cc2ccc(OC)cc2)c2ccc(OCCCN(C)C)cc2)cc1 | 16.2 µM | 31.3 µM | 12.6 µM | 25.7 µM | 14.1 µM | 28.2 µM | 13.1 µM | 26.7 µM | 14.6 µM | 29.2 µM | 13.8 µM | 27.1 µM | 14.5 µM | 27.8 µM | 16.4 µM | 30.4 µM | 12.3 µM | 28.2 µM | 12.3 µM | 26.1 µM
N[C@@H]1C(=O)N2C(C(=O)OC(c3ccccc3)c3ccccc3)=C(CCl)CS[C@H]12 | 31 µM | > 84.7 µM | 27.1 µM | > 76.6 µM | 34 µM | > 100 µM | 44.8 µM | > 100 µM | 43 µM | > 100 µM | 35.1 µM | > 100 µM | > 100 µM | > 100 µM | 40.2 µM | > 100 µM | 11.3 µM | > 71.2 µM | 34.8 µM | > 96.2 µM
COC1=C(C)C(=O)c2c(c(CCCl)c3n2CCC3O)C1=O (stereo not given) | 0.224 µM | 1.17 µM | 1.53 µM | > 100 µM | 0.178 µM | 2.79 µM | 9.36 µM | 39 µM | 0.348 µM | 1.57 µM | 1.24 µM | 2.79 µM | 1.22 µM | 3.95 µM | 0.327 µM | 6.83 µM | 7.37 µM | 99.4 µM | 0.264 µM | 1.21 µM
CC(C)N1CCN(Cc2ccc3c(NNC(=O)c4ccccc4)nc4cc(F)ccc4n23)CC1 | 0.532 µM | 5.05 µM | 0.238 µM | 1.45 µM | 0.128 µM | 1.4 µM | 0.293 µM | 7.71 µM | 0.699 µM | 6.45 µM | 0.655 µM | 15.1 µM | 0.249 µM | 6.26 µM | 0.0902 µM | 12 µM | 0.24 µM | 2.04 µM | 0.23 µM | 3.28 µM
